The source of these data is patent US9615579B2, “Compositions for powdery mildew control and methods of their use” (Valent U.S.A., Corporation, priority 2015, dated 2017).

Experiment [1] has as its system apple powdery mildew. Put plainly: Example 1: foliar applications on jonagold apple trees, control of apple powdery mildew. It counts as in vivo, Podosphaera leucotricha. The conditions noted are these: jonagold trees about 9 years old; five foliar sprays at 14 day intervals, about 300 L/ha; incidence of disease observed about a week after last treatment; rates (own compound 50 g active/ha, silicone surfactant 584 mL/ha, Regulaid surfactant 0.125% v/v, methylated seed oil 0.06% v/v, kresoxim-methyl 224, penthiopyrad 234 g active/ha). From the text: Applicant conducted the following study to determine the effect of 3-(difluoromethyl)-1-methyl-N-[(3R)-1,1,3-trimethyl-2,3-dihydroinden-4-yl]pyrazole-4-carboxamide foliar applications on fungal infections in apple trees.
A 40% suspension concentrate formulation was used as the source of 3-(difluoromethyl)-1-methyl-N-[(3R)-1,1,3-trimethyl-2,3-dihydroinden-4-yl]pyrazole-4-carboxamide (available from Sumitomo Chemical Company, Tokyo, Japan).
Regulaid® is a nonionic surfactant and was used as the source of the 2-butoxyethanol, poloxalene, and monopropylene glycol surfactant (Regulaid is available from and a registered trademark of KALO, Inc). Regulaid® contains about 90.6% of 2-butoxyethanol, poloxalene, and monopropylene glycol.
Sovran® was used as the source of kresoxim-methyl (available from and a registered trademark of BASF Corporation).
Fontelis® was used as the source of penthiopyrad (available from and a registered trademark of E.I. du Pont).
Slygard® 309 was used as the source of a mixture of 3-(3-hydroxypropyl)-heptamethyltrisiloxane-ethoxylated acetate, polyethylene glycol monallyl acetate and polyethylene glycol diacetate silicone containing surfactant (available from and a registered trademark of Wilbur-Ellis Company). Slygard® 309 contains 100% of the mixture of surfactants.

Experiment [2] deals with apple powdery mildew. Put plainly: Example 2: foliar applications on jonagold apple trees, incidence and severity of apple powdery mildew. It counts as in vivo, Podosphaera leucotricha. Here is the method: Applicant conducted the following study to determine the effect of a 3-(difluoromethyl)-1-methyl-N-[(3R)-1,1,3-trimethyl-2,3-dihydroinden-4-yl]pyrazole-4-carboxamide foliar applications on fungal infections in apple trees.
(§1) 30, 2015. […] Pest incidence, pest severity, and fruit finish were measured.
SYL-COAT™ was used as the source of polyether-polymethylsiloxane-copolymer and polyether silicone containing surfactant (available from Wilbur-Ellis Company).

The test system of experiment [3] is Apples, jonagold variety. The experiment is described as follows: Example 2: fruit finish quality of treated apple trees. It counts as in vivo. To be noted: 80 days after 7th treatment. The procedure:
as §1

Setting [4] is: 8 days after 4th treatment, rates (own compound 50 g/ha, penthiopyrad 234 g/ha, kresoxim-methyl 224 g/ha, silicone surfactant 8 fl oz/a, Regulaid surfactant 0.125% v/v).

For the molecule `C[C@@H]1CC(C)(C)c2cccc(NC(=O)c3cn(C)nc3C(F)F)c21` [3-(Difluoromethyl)-1-methyl-N-[(3R)-1,1,3-trimethyl-2,3-dihydroinden-4-yl]pyrazole-4-carboxamide], in experiment [1], the “% Control” value is listed as 67%. In addition, the “Incidence of Apple Powdery Mildew (%)” value in experiment [2] (2 days after 5th treatment) is given as 11.5303 bc %; in experiment [2] (3 days after 6th treatment) it was 20.4938 c %; in experiment [2] (setting [4]), 13.0000 b %. Further, the “Severity of Apple Powdery Mildew (%)” value turned out to be 1.6836 bc % in experiment [2] (2 days after 5th treatment), 4.4196 c % in experiment [2] (3 days after 6th treatment) and 11.5331 bc % in experiment [2] (9 days after 7th treatment). Moreover, the “Fruit Finish Quality (0 lowest-10 highest)” value (“Fruit Finish Quality” for short) in experiment [3] was 7.5000 b.
Turning to `CO/N=C(/C(=O)OC)c1ccccc1COc1ccccc1C` [Kresoxim-methyl, kresoxim-methyl], in experiment [1], the “% Control” value is 63%. Further, the “Incidence of Apple Powdery Mildew (%)” value in experiment [2] (2 days after 5th treatment) is reported as 3.4874 cd %; in experiment [2] (3 days after 6th treatment) it was 12.0332 cd %; in experiment [2] (setting [4]), 8.7500 bc %. In addition, the “Severity of Apple Powdery Mildew (%)” value in experiment [2] (2 days after 5th treatment) was 0.8465 cd %; in experiment [2] (3 days after 6th treatment), 2.9013 c %; in experiment [2] (9 days after 7th treatment), 9.0294 bc %. Further, the “Fruit Finish Quality” value in experiment [3] is 8.2500 b.
As for `CC(C)CC(C)c1sccc1NC(=O)c1cn(C)nc1C(F)(F)F` (stereo not drawn) [Penthiopyrad, penthiopyrad], in experiment [1], the “% Control” value is reported as 71%. For the same molecule, the “Incidence of Apple Powdery Mildew (%)” value is 1.4675 cd % in experiment [2] (2 days after 5th treatment), 2.5965 ef % in experiment [2] (3 days after 6th treatment) and 7.5000 bc % in experiment [2] (setting [4]). The “Severity of Apple Powdery Mildew (%)” value in experiment [2] (2 days after 5th treatment) turned out to be 0.6379 cd %; in experiment [2] (3 days after 6th treatment), 0.7932 d %; in experiment [2] (9 days after 7th treatment), 7.8439 c %. Also, in experiment [3], the “Fruit Finish Quality” value was found to be 8.0000 b.
